Earlier results, collected in patent US11547692B2, “Complete animal food having cannabinoids in trace concentrations to avoid toxicity” (High Plains Nutrition, LLC, priority 2017, dated 2023).

System: psychotropic effects
Details: humans; single administration; lowest dose tested; European Food Safety Authority (EFSA, 2011)

In the case of CCCCCc1cc(O)c2c(c1)OC(C)(C)[C@@H]1CCC(C)=C[C@@H]21 [THC, Tetrahydrocannabinol], the “Lowest Observed Effect Level (LOEL), lowest effective dose for psychotropic effects” value is listed as 0.04 mg THC/kg BW.
